Assay results reported in patent US7375226B2, “Bi- and tricyclic substituted phenyl methanones” (Hoffman-La Roche Inc., priority 2004, dated 2008).

target: T1, mGlyT-1b (Mus musculus, UniProt P28571); assay: Glycine uptake inhibition assay (mGlyT-1b), [3H]-glycine uptake in Flp-in-CHO cells; assay type: cell-based; settings: Flp-in-CHO cells stably transfected with mGlyT1b cDNA; [3H]-glycine 60 nM and 25 μM non-radioactive glycine; read-out: IC50 (μM) at GlyT-1
T1 construct: host or cells: Flp-in-CHO
T1 sequence (P28571 1-651 isoform P28571-2): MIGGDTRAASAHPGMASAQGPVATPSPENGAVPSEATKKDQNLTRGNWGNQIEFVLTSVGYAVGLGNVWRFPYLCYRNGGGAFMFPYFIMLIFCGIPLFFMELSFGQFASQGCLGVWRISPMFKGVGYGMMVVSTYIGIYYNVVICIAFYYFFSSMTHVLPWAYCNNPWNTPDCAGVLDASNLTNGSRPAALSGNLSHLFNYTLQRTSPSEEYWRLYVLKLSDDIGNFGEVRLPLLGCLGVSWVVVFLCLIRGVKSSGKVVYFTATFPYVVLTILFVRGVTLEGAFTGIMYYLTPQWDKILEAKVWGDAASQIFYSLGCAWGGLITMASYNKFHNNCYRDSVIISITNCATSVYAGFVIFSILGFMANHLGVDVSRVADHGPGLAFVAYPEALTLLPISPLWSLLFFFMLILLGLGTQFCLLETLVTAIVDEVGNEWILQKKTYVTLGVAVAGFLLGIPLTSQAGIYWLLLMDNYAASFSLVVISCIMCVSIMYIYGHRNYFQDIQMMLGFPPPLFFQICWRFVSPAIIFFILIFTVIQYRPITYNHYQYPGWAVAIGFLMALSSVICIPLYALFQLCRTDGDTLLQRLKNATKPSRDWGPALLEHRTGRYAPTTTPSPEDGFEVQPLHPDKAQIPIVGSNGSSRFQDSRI
Procedure: • DMEM complete medium: Nutrient mixture F-12 (Gibco Life-technologies), fetal bovine serum (FBS) 5%, (Gibco life technologies), Penicillin/Streptomycin 1% (Gibco life technologies), Hygromycin 0.6 mg/ml (Gibco life technologies), Glutamine 1 mM Gibco life technologies). • Uptake buffer (UB): 150 mM NaCl, 10 mM Hepes-Tris, pH 7.4, 1 mM CaCl2, 2.5 mM KCl, 2.5 mM MgSO4, 10 mM (+) D-glucose. • Flp-in™-CHO (Invitrogen Cat n° R758-07)cells stably transfected with mGlyT1b cDNA. • Glycine uptake inhibition assay (mGlyT-1b)
On day 1 mammalian cells, (Flp-in™-CHO), transfected with mGlyT-1b cDNA, were plated at the density of 40,000 cells/well in complete F-12 medium, without hygromycin in 96-well culture plates. On day 2, the medium was aspirated and the cells were washed twice with uptake buffer (UB). The cells were then incubated for 20 min at 22° C. with either (i) no potential competitor, (ii) 10 mM non-radioactive glycine, (iii) a concentration of a potential inhibitor. A range of concentration of the potential inhibitor was used to generate data for calculating the concentration of inhibitor resulting in 50% of the effect (e.g. IC50, the concentration of the competitor inhibiting glycine uptake of 50%). A solution was then immediately added containing [^3H]-glycine 60 nM (11-16 Ci/mmol) and 25 μM non-radioactive glycine. The plates were incubated with gentle shaking and the reaction was stopped by aspiration of the mixture and washing (three times) with ice-cold UB. The cells were lysed with scintillation liquid, shaken 3 hours and the radioactivity in the cells was counted using a scintillation counter.

IC50	SMILES
0.367 µM	CS(=O)(=O)c1ccc(OC2CCCC2)c(C(=O)N2CCn3c(nc4ccccc43)C2)c1 [Example 15, (2-Cyclopentyloxy-5-methanesulfonyl-phenyl)-(3,4-dihydro-1H-benzo[4,5]imidazo[1,2-a]pyrazin-2-yl)-methanone]
0.026 µM	CS(=O)(=O)c1ccc(OCC2CC2)c(C(=O)N2CCc3c(sc4ccc(Cl)cc34)C2)c1 [Example 20, (6-Chloro-3,4-dihydro-1H-benzo[4,5]thieno[2,3-c]pyridin-2-yl)-(2-cyclopropylmethoxy-5-methanesulfonyl-phenyl)-methanone]
0.023 µM	C[C@H](Oc1ccc(S(C)(=O)=O)cc1C(=O)N1CCc2c(sc3ccc(Cl)cc23)C1)C(F)(F)F [Example 22, (6-Chloro-3,4-dihydro-1H-benzo[4,5]thieno[2,3-c]pyridin-2-yl)-[5-methanesulfonyl-2-((S)-2,2,2-trifluoro-1-methyl-ethoxy)-phenyl]-methanone]
0.154 µM	CC(C)Oc1ccc(S(C)(=O)=O)cc1C(=O)N1CCN2c3ccc(OC(F)(F)F)cc3CC2C1 (racemic) [Example 14, Rac-(2-Isopropoxy-5-methanesulfonyl-phenyl)-(8-trifluoromethoxy-3,4,10,10a-tetrahydro-1H-pyrazino[1,2-a]indol-2-yl)-methanone]
0.339 µM	CC(C)Oc1ccc(C#N)cc1C(=O)N1CCc2c(sc3ccc(Cl)cc23)C1 [Example 19, 3-(6-Chloro-3,4-dihydro-1H-benzo[4,5]thieno[2,3-c]pyridine-2-carbonyl)-4-isopropoxy-benzonitrile]

The next lines start with the molecule.

SMILES	IC50
CS(=O)(=O)c1ccc(N2CCOCC2)c(C(=O)N2CCc3c(sc4ccc(Cl)cc34)C2)c1 [Example 2, (6-Chloro-3,4-dihydro-1H-benzo[4,5]thieno[2,3-c]pyridin-2-yl)-(5-methanesulfonyl-2-morpholin-4-yl-phenyl)-methanone]	0.187 µM
CC(C)Oc1ccc(S(C)(=O)=O)cc1C(=O)N1CCn2c(cc3cc(OC(F)(F)F)ccc32)C1 [Example 11, (2-Isopropoxy-5-methanesulfonyl-phenyl)-(8-trifluoromethoxy-3,4-dihydro-1H-pyrazino[1,2-a]indol-2-yl)-methanone]	0.088 µM
CC(C)Oc1ccc(S(C)(=O)=O)cc1C(=O)N1CCc2nc(-c3cccs3)sc2C1 [Example 6, (2-Isopropoxy-5-methanesulfonyl-phenyl)-(2-thiophen-2-yl-6,7-dihydro-4H!-thiazolo[5,4-c]pyridin-5-yl)-methanone]	0.407 µM
CC(C)Oc1ccc(S(C)(=O)=O)cc1C(=O)N1CCn2c(cc3ccc(Cl)cc32)C1 [Example 9, (7-Chloro-3,4-dihydro-1H-pyrazino[1,2-a]indol-2-yl)-(2-isopropoxy-5-methanesulfonyl-phenyl)-methanone]	0.134 µM
CC(C)COc1ccc(S(C)(=O)=O)cc1C(=O)N1CCc2nc(-c3cccs3)sc2C1 [Example 5, (2-Isobutoxy-5-methanesulfonyl-phenyl)-(2-thiophen-2-yl-6,7-dihydro-4H-thiazolo[5,4-c]pyridin-5-yl)-methanone]	0.098 µM
CC(C)Oc1ccc(S(C)(=O)=O)cc1C(=O)N1CCc2c(sc3ccc(Cl)cc23)C1 [Example 1, (6-Chloro-3,4-dihydro-1H-benzo[4,5]thieno[2,3-c]pyridin-2-yl)-(2-isopropoxy-5-methanesulfonyl-phenyl)-methanone]	0.019 µM
CC(C)COc1ccc(S(C)(=O)=O)cc1C(=O)N1CCc2nc(-c3ccc(C(F)(F)F)cc3)sc2C1 [Example 23, (2-Isobutoxy-5-methanesulfonyl-phenyl)-[2-(4-trifluoromethyl-phenyl)-6,7-dihydro-4H-thiazolo[5,4-c]pyridin-5-yl]-methanone]	0.341 µM
